Results on 85 compounds are retold here after ChEMBL document CHEMBL1157539, “Thousands of chemical starting points for antimalarial lead identification” (Nature, 2010).

This experiment deals with Plasmodium falciparum. Kind of experiment: GSK_TCMDC: Inhibition of Plasmodium falciparum 3D7 in whole erythrocytes, using parasite LDH activity as an index of growth. Format: functional, organism-based. The note with it: Plasmodium falciparum, 3D7.
In turn, `COc1ccc2nccc(N/N=C/c3ccc([N+](=O)[O-])cc3)c2c1` registered an XC50 of 712 nM. In turn, `CN1CCC(N2CCN(c3ccc4c(=O)nc(CCc5cccc(F)c5F)n(CC(=O)N(C)Cc5ccc(-c6ccc(C(F)(F)F)cc6)cc5)c4n3)CC2)CC1` registered an XC50 of 717 nM. Under `CCN(CC)CCN(Cc1ccc(-c2ccc(C(F)(F)F)cc2)cc1)C(=O)Cn1c(SCc2ccc(F)c(F)c2F)nc(=O)c2c1CCC2` stands 1020 nM; under `Oc1cc(NCc2ccccc2NCc2ccc(Cl)c(Cl)c2)nc2ccccc12`, 842 nM.

Compound `CCN(CC)c1ccc(C(=O)Cn2ccc(=N)cc2)cc1` yielded an XC50 of 998 nM. With `Oc1ccc(CCNc2nc(NCCCOc3ccccc3-c3ccc(F)cc3)nc(N3CCNCC3)n2)cc1`, the XC50 was found to be 1080 nM. Compound `O=C(Nc1ccccc1)N(Cc1cccc(-c2cccc(CNCc3ccc4c(c3)OCO4)c2)c1)C1CCN(Cc2ccccc2)CC1` yielded an XC50 of 281 nM.

Consider `O=C(N[C@H]1CCN(Cc2ccc(OCCCN3CCCCC3)cc2)C1)c1ccc2ccccc2c1`, for which the XC50 was 764 nM. `Cc1cc(-c2nc3cc(C(=N)N)ccc3[nH]2)c(C)cc1-c1nc2cc(C(=N)N)ccc2[nH]1` yielded an XC50 of 397 nM.

`O=c1sn(-c2csc3ccccc23)c2ccccc12` displayed an XC50 of 339 nM. In the case of `COCCNCC(O)Cn1c2ccc(Cl)cc2c2cc(Cl)ccc21` (stereo not given), the XC50 came to 52 nM. In turn, `Cc1cccc2nc(-c3ccc(-c4cccc(CN5CCN(c6ccncc6)CC5)c4)cc3)[nH]c12` registered an XC50 of 117 nM.

Compound `CC(C)(C)c1nn(-c2ccccc2)c2[nH]c(=O)c(CNCc3ccc4c(c3)OCO4)cc12` registered an XC50 of 1050 nM. As for `N=C(N)c1cc(Cl)cc(NC(=O)Nc2cc(Cl)cc(C(=N)N)c2)c1`, the XC50 stood at 719 nM. The result for `COCCN(C)CCCOc1cc2c(cc1OC)ncn2-c1cc(OCc2ccccc2C(F)(F)F)c(C(N)=O)s1` reads 710 nM. Under `CCCc1ccc(-c2csc(NC(=O)c3ccc([N+](=O)[O-])o3)n2)cc1` stands 1210 nM; under `CN(C)CCOc1ccc(-c2cc(-c3ccc(Cl)c(O)c3)c(-c3ccncc3)o2)cc1`, 1450 nM. Regarding `Cn1cncc1-c1cc2c(Nc3ccc(OCc4ccccc4)cc3)ncnc2cn1`, the XC50 stood at 268 nM.

On to `CC(c1cccc(Nc2nccc(-c3c(-c4cccc(NC(=O)c5c(F)cccc5F)c4)nn4ccccc34)n2)c1)S(C)(=O)=O` (stereo not given), for which the XC50 was 57.5 nM. As for `COc1ccc2nccc([C@@H](O)CN3CCC(NCc4cc5c(Cl)cc(Cl)cc5[nH]4)CC3)c2c1`, the XC50 was found to be 58.5 nM.

As for `COc1ccc(NC(=O)/C=C/c2ccccc2Cl)cc1OCCN1CCC(N2CCN(C)CC2)CC1`, the XC50 was 487 nM. The result for `COc1cc2c(cc1S(=O)(=O)c1ccc(NC(=O)c3cccc(C(F)(F)F)c3)cc1)CCN(C)CC2` reads 1380 nM; that for `COc1ccc2nc3cc(Cl)ccc3c(NCCc3ccccc3)c2c1`, 950 nM; that for `O=c1[nH]nc(-c2ccc(N3CCCC3)c([N+](=O)[O-])c2)c2ccccc12`, 631 nM.

Compound `CCN1CCN(CCCNc2c3ccccc3nc3ccccc23)CC1` returned an XC50 of 798 nM.

`Cc1cc(N)c2cc(NC(=O)/C=C/c3ccc([N+](=O)[O-])cc3)ccc2n1` returned an XC50 of 669 nM.

`Cc1cccc(C(=O)Nc2ccnc(N3CCC(N(C)Cc4ccccc4)CC3)c2)c1` had an XC50 of 962 nM. In the case of `CC(C)(C)c1ccc(/C=C/C(=O)NCCCCCN2CCC(c3c[nH]c4ccccc34)CC2)cc1`, the XC50 turned out to be 1090 nM. `COc1ccc(CNC2Cc3ccccc3C2)cc1-c1cccc(S(=O)(=O)NCCN2CCCC2)c1` showed an XC50 of 760 nM.

As to `Cc1cccc2nc(-c3ccc(-c4ccc(CNCCNC(=O)c5ccnn5C)cc4)s3)[nH]c12`, the XC50 is 308 nM. The result for `CC(C)COc1ccc(Cl)cc1Cc1nc(-c2nc3ccc(CN(C)C)cc3[nH]2)co1` reads 711 nM. The result for `CCOC(=O)c1ccc(NC(=O)Nc2ccc(-c3cccc(-c4nc5cc(F)ccc5[nH]4)c3)cc2)cc1` reads 122 nM; that for `CCCCCN1CCCN(Cc2cccc(NC(=O)c3cc4ccccc4s3)c2)CC1`, 594 nM; that for `COc1ccc(-c2cc(C(=O)N[C@@H](CC3CCCCC3)C(=O)NCCN3CCCCC3)ccc2O)cc1`, 950 nM. As to `CC1CN(c2cnn(Cc3ccc(NC(=O)Nc4ccc(-c5ccccc5)cc4)cc3)c(=O)c2Cl)CC(C)N1` (stereo not given), the XC50 is 367 nM.

In the case of `O=C(Nc1ccc(CN2CCN(S(=O)(=O)c3cccc(Cl)c3)CC2)cc1)c1cccs1`, the XC50 turned out to be 1080 nM. As to `CN1CCN(CCCN(Cc2ccc(-c3ccc(CNCc4ccc5c(c4)OCO5)cc3)cc2)C(=O)CCC2CCCC2)CC1`, the XC50 is 952 nM. For the compound `Nc1nc(N)c2cc(N(Cc3ccccc3)Cc3ccccc3)ccc2n1`, the XC50 is 612 nM. `COc1ccc(NC(=O)c2cccc(Br)c2)cc1N1CCN(CCCCCCCN2CCN(c3cc(NC(=O)c4cccc(Br)c4)ccc3OC)CC2)CC1` displayed an XC50 of 184 nM. The result for `CCOc1cc(C(=O)Nc2ccc3nc(N4CCN(C)CC4)cc(C)c3c2)cc(OCC)c1OCC` reads 847 nM; that for `N=C(N)NN=CC(=O)Nc1cccc(C(F)(F)F)c1`, 1000 nM; that for `Cc1cc(Nc2ccc(Oc3ccc(Cl)cc3)cc2)nc(N)n1`, 616 nM. `COc1ccc(CNC(=O)c2cnc3c(O)cccc3c2Nc2cccc(NC(=O)c3ccc(Cl)c([N+](=O)[O-])c3)c2)cc1` gave an XC50 of 945 nM. In turn, `CCCCNCc1ccc(-c2nc(CN(Cc3ccc(Cl)c(Cl)c3)S(=O)(=O)c3ccc(NC(C)=O)cc3)cs2)cc1` showed an XC50 of 1030 nM.

With `CCN(CC)CCCSc1ccc(-c2ccc(SCCCN(CC)CC)cc2)cc1`, the XC50 amounted to 1160 nM. `CN(C)c1ccc(C=Cc2nc(=O)c3ccccc3o2)cc1` displayed an XC50 of 44.6 nM. Under `Cc1cc(N[C@@H](Cc2ccccc2)C(=O)NCc2cccc(F)c2)nc(NCCOc2ccccc2)n1` stands 786 nM; under `CC(C)CNCc1cccc(-c2ccc(CN(CCCN3CCN(C)CC3)C(=O)CCC3CCCC3)cc2)c1`, 877 nM; under `C=CCOC(=O)N1CCC(CNCc2cccc(-c3ccc(-c4nc5cccc(C)c5[nH]4)cc3)c2)C1` (stereo not given), 251 nM.

`COc1ccc(NC(=O)[C@H](Cc2ccccc2)Nc2cc(C)nc(NCC3CCCCC3)n2)cc1` displayed an XC50 of 678 nM. Regarding `COc1ccc2c(NN=Cc3cccc(C)n3)ccnc2c1`, the XC50 came to 761 nM. For the compound `CC(=O)c1nccc(C)c1N`, the XC50 came to 929 nM. With `Cc1cccc(OCC(=O)Nc2cccc(NC(=O)COc3cccc(C)c3)n2)c1`, the XC50 worked out at 671 nM. The result for `CC(Cc1ccc([N+](=O)[O-])cc1)NCC(O)c1cccc(C(F)(F)F)c1` (stereo not given) reads 898 nM; that for `COc1cc2c(cc1OCCN1CCC(N3CCCCC3)CC1)N(C(=O)/C=C/c1ccccc1Cl)CC2`, 280 nM. Compound `CN(C)CCC(O)(c1ccc(Br)cc1)c1cccnc1` (stereo not given) registered an XC50 of 831 nM.

Consider `Cc1cc(N[C@@H](Cc2ccccc2)C(=O)NCCc2ccccc2)nc(NCCc2ccccc2)n1`, for which the XC50 amounted to 850 nM. The compound `Nc1cccc(CNCc2ccc(-c3ccc(-c4nc5ccccc5[nH]4)s3)cc2)c1` yielded an XC50 of 574 nM.

In the case of `Cc1cccc2nc(-c3ccc(-c4cccc(NC(=O)c5cncn5C)c4)cc3)[nH]c12`, the XC50 was 861 nM. In the case of `Cc1cc(NC2CCN(CC3CCCCC3)C2)nc(Nc2ccc(Br)cc2)n1` (stereo not given), the XC50 was found to be 566 nM. Consider `Cc1cc(NCCC(=O)Nc2ccccc2)nc(NCC2CCCCC2)n1`, for which the XC50 was 841 nM.

Take `CC(=O)Nc1ccc2[nH]cc(C3CCN(CC4CCN(C(=O)/C=C/c5ccc(Cl)c(Cl)c5)CC4)CC3)c2c1`: the XC50 came out at 723 nM. In turn, `Oc1ccc(CCNCc2ccc(OCc3ccccc3)c(OCc3ccccc3)c2)cc1` returned an XC50 of 1510 nM.

`Cc1cc(-c2cnc(N)c(-c3ccc(N4CCN(C)CC4)cc3)c2)cc(C)c1O` had an XC50 of 1170 nM. The compound `CCOc1cc(NC(=O)Nc2ccnc3ccccc23)cc(OC)c1` returned an XC50 of 866 nM. As for `O=C(/C=C/c1ccc(Cl)cc1Cl)NC1CCC(CN2CCC(c3c[nH]c4ccccc34)CC2)CC1` (stereo not given), the XC50 turned out to be 798 nM. Regarding `COc1ccc(-c2cccc(CNC3CCN(CC4Cn5c(=O)ccc6ccc(F)c4c65)CC3)c2)cc1` (stereo not given), the XC50 came to 1090 nM. Turning to `Cc1[nH]c(C)c(-c2ccc(CCc3ccc(F)cc3F)cc2)c(=O)c1Br`, the XC50 was 5.29 nM. The result for `COc1ccc2ncc(C#N)c(CCN3CCC(NCc4ccc5c(n4)NC(=O)CS5)CC3)c2n1` reads 836 nM; that for `O=C(NC1CCCCN(Cc2ccccc2O)C1)c1cc(F)cc(F)c1` (stereo not given), 1170 nM; that for `CN(C)CCCNCc1ccc(-c2ccc(CNCCc3ccccc3)cc2)cc1`, 994 nM. In turn, `COc1cc2ncnc(Nc3ccc(OCc4ccccc4)c(OCc4ccccc4)c3)c2cc1OC` returned an XC50 of 738 nM. `O=C(/C=C/c1ccc(Cl)c(Cl)c1)NCCCCCN1CCCN(C(=S)Nc2ccc(Cl)c(Cl)c2)CC1` came in with an XC50 of 869 nM.

In turn, `CC(C)N(Cc1cnc(N)c(C#N)n1)c1ccc(Cl)c(Cl)c1` returned an XC50 of 844 nM. With `COc1cc(Cc2cnc(N)nc2N)cc(OCCNC(=O)OCc2ccccc2)c1OC`, the XC50 was determined as 923 nM. As for `O=C(Nc1cccc(CN2CCCN(Cc3cccc(O)c3)CC2)c1)c1ccc(-c2ccccc2)cc1`, the XC50 stood at 641 nM. `CCCCCCn1c(Sc2ccc(C#N)c([N+](=O)[O-])c2)nnc1-c1cccc(Cl)c1` came in with an XC50 of 609 nM. `CC(=O)N[C@@H]1c2cc(C(C)=O)ccc2OC(C)(C)[C@@H]1O` gave an XC50 of 983 nM. As for `CCOC(=O)c1ccc(NC(=O)Nc2ccc(-c3cccc(-c4nc5cccc(C)c5[nH]4)c3)cc2)cc1`, the XC50 is 145 nM. Turning to `COc1ccc(NC(=O)[C@H](CC(C)C)Nc2cc(C)nc(NCCc3cccs3)n2)cc1`, the XC50 amounted to 964 nM. Under `CS(=O)(=O)Nc1ccc2[nH]cc(C3CCN(CC4CCC(NC(=O)/C=C/c5ccccc5Cl)CC4)CC3)c2c1` (stereo not given) stands 793 nM; under `O=C(NCCCCN1CCN(c2cccc3c2OCCO3)CC1)c1ccc(NC(=O)c2cc(Cl)cc(Cl)c2)cc1`, 225 nM. Compound `O=C(Nc1ccc(F)c(C(F)(F)F)c1)N[C@H]1CCN(CCCCCNC(=O)C2CC2c2ccc(Cl)c(Cl)c2)C1` (stereo not given in full) showed an XC50 of 157 nM.

On to `CCCCOc1ccc(/C=C/c2ccc(-c3c(C)[nH]c(C)c(Cl)c3=O)s2)cc1`, for which the XC50 is 395 nM. `CCOC(=O)c1ccc(NC(=O)Nc2ccc(-c3cccc(-c4nc5ccccc5[nH]4)c3)cc2)cc1`: the XC50 came to 145 nM.
